Test results published in patent publication US7320972B2, “4-Biarylyl-1-phenylazetidin-2-ones” (Microbia, Inc., priority 2003, dated 2008).

What was measured:
[1] = system: cholesterol absorption (serum 3H-cholesterol); experiment: In Vivo Assay of Hypolipidemic Agents using the Rat Cholesterol Absorption Model; design: species or system Sprague-Dawley rats; conditions: peroral; for inhibition in vivo at 1 mg/kg: po, serum 3H-cholesterol 3 h after cholesterol dose, vs vehicle control; for % inhibition at 10 mg/kg: 10 mg/kg (footnote 1)
Procedure, shortened: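 Female Sprague-Dawley rats (150–250 g, 4–6 per group) were fasted overnight and dosed orally with compound in olive oil or vehicle. Thirty minutes later they received 3–5 μCi 3H-cholesterol orally in olive oil, and serum radioactivity was measured at 3 h. % inhibition = 100×(1−Ctest/Cctrl) at a fixed dose; ED50 is the dose giving half-maximal effect.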

[2] = serum 3H-cholesterol vs vehicle control

melting point [°C] | Compound | inhibition in vivo at 1 mg/kg [1] [%] | % inhibition at 10 mg/kg [1, 2] | % inhibition at 3 mg/kg ([1]; 3 mg/kg (footnote 2), serum 3H-cholesterol vs vehicle control)
101 | O=C1[C@H](CC[C@H](O)c2ccc(F)cc2)[C@@H](c2ccc(-c3ccccc3O)cc2)N1c1ccc(F)cc1 [Example 7, (3R,4S)-1-(4-fluorophenyl)-3-[(3S)-3-(4-fluorophenyl)-3-hydroxypropyl]-4-(2′-hydroxybiphenyl-4-yl)azetidin-2-one] | 30 |  | 
110 | O=C1[C@H](CC[C@H](O)c2ccc(F)cc2)[C@@H](c2ccc(-c3ccc(O)cc3)cc2)N1c1ccc(F)cc1 [Example 2, (3R,4S)-1-(4-fluorophenyl)-3-[(3S)-3-(4-fluorophenyl)-3-hydroxypropyl]-4-(4′-hydroxybiphenyl-4-yl)azetidin-2-one] |  | 54^1% | 
103 | COc1ccc(-c2ccc([C@@H]3[C@@H](CC[C@H](O)c4ccc(F)cc4)C(=O)N3c3ccc(F)cc3)cc2)cc1 [Example 5, (3R,4S)-1-(4-fluorophenyl)-3-[(3S)-3-(4-fluorophenyl)-3-hydroxypropyl]-4-(4′-methoxybiphenyl-4-yl)azetidin-2-one] |  | 26^1% | 
111 | CS(=O)(=O)c1ccc(-c2ccc([C@@H]3[C@@H](CC[C@H](O)c4ccc(F)cc4)C(=O)N3c3ccc(F)cc3)cc2)cc1 [Example 8, (3R,4S)-1-(4-fluorophenyl)-3-[(3S)-3-(4-fluorophenyl)-3-hydroxypropyl]-4-[4′-(methylsulfonyl)biphenyl-4-yl]azetidin-2-one] | 53 |  | 
101 | COc1cccc(-c2ccc([C@@H]3[C@@H](CC[C@H](O)c4ccc(F)cc4)C(=O)N3c3ccc(F)cc3)cc2)c1OC [Example 11, (3R,4S)-4-(2′,3′-dimethoxybiphenyl-4-yl)-1-(4-fluorophenyl)-3-[(3S)-3-(4-fluorophenyl)-3-hydroxypropyl]azetidin-2-one] | 28 |  | 
104 | CS(=O)(=O)c1cccc(-c2ccc([C@@H]3[C@@H](CC[C@H](O)c4ccc(F)cc4)C(=O)N3c3ccc(F)cc3)cc2)c1 [Example 10, (3R,4S)-1-(4-fluorophenyl)-3-[(3S)-3-(4-fluorophenyl)-3-hydroxypropyl]-4-[3′-(methylsulfonyl)biphenyl-4-yl]azetidin-2-one] |  |  | 54^2%
